For assay [1], the system named is male Syrian hamsters (ear sebaceous glands, sebum). In words: Animal model for inhibition of sebum production (hamster ear). It counts as in vivo, Syrian hamster. The note with it: 3 % w/v, 4 weeks; for % CE Reduction / % WE Reduction: Vehicle #1 (polyethylene glycol/transcutol/ethanol 20/20/60), topical twice daily, vs vehicle control; for % WE & CE Reduction: Vehicle #1, topical twice daily, sum of WE and CE. On the procedure:
Arch. Derm. […] This model uses male Syrian hamsters, whose ears contain sebaceous glands.
Testing for sebum inhibition was carried out in the following manner. Male Syrian hamsters aged 9 to 10 weeks were introduced into the laboratory environment and acclimated for 2 weeks prior to use in the study. Each group consisted of 5 animals and run in parallel with vehicle and positive controls. Prior to administration, a sufficient quantity each compound was dissolved in 1 mL of the vehicle identified in Table III to achieve the final concentration reported in Table Ill.
Animals were dosed topically twice daily, five days a week, for 4 weeks. Each dose consisted of 25 micro liters of vehicle control or drug. The dose was applied to the ventral surfaces of both the right and left ears. All animals were sacrificed approximately 18-24 hours after the final dose. The right ears were collected from each animal and used for sebum analysis.
The ears were prepped for HPLC analysis in the following manner. One 8 mm distal biopsy punch was taken, just above the anatomical “V” mark in the ear to normalize the sample area. The punch was pulled apart. The ventral biopsy surface (the area where the topical dose was directly applied to the sebaceous glands) was retained for testing and the dorsal surface of the biopsy punch was discarded.
Tissue samples were blown with N2 gas and stored at −80° C. under nitrogen until HPLC analysis. In addition to ear samples, an aliquot of each drug and vehicle (at least 250 ul) was also stored at −80° C. for inclusion in the HPLC analysis.
HPLC analysis was carried out on an extract of the tissue sample. Tissue samples were contacted with 3 ml of solvent (a 4:1 admixture of 2,2,4-trimethylpentane and isopropyl alcohol). The mixture was shaken for 15 minutes and stored overnight at room temperature, protected from light. The next morning 1 milliliter of water was added to the sample and shaken for 15 minutes. The sample was then centrifuged at approximately 1500 rpm for 15 minutes. Two ml of the organic phase (top layer) was transferred to a glass vial, dried at 37° C., under nitrogen, for approximately 1 hour, and then lyophilized for approximately 48 hours. The samples were then removed from the lyophilizer and each vial was reconstituted with 600 μl of solvent A (trimethylpentane/tetrahydrofuran (99:1). The samples were then recapped and vortexed for 5 minutes.
200 μl of each sample was then transferred to a pre-labeled 200 μl HPLC vial with 200 μL glass inserts. The HPLC vials were placed in the autosampler tray for the Agilent 1100 series HPLC unit. The Agilent 1100 HPLC system consisted of a thermostated autosampler, a quarternary pump, a column heater, and an A/D interface module. All components were controlled by Agilent ChemStation software. A Waters Spherisorb S3W 4.6×100 mm analytical column was maintained at 30° C. by the Agilent column heater unit. The HPLC autosampler was programmed to maintain the sample temperature at 20 C throughout the run.
10 uL of each sample was injected in triplicate into the column. Two solvents were used for the solvent gradient. Solvent A was an admixture of trimethylpentane and tetrahydrofuran (99:1). Solvent B was ethylacetate. The gradient utilized is described in the table below: […]
The Sedex 75 Evaporative Light Scattering Detector (ELSD) was operated at 45° C. with a gain of 5, and N2 pressure maintained at 3.1 bar. Analog signal obtained by the instrument was sent to the Agilent A/D interface module where it was converted to a digital output. The conversion was based on a 10000 mAU/volt set point and the data rate was set at 10 Hz (0.03 min). The resulting digital output was then feed into the Agilent ChemStation software for integration of the peak area.

Assay [2] concerns male C3H/HeN mice (telogen to anagen conversion). It counts as in vivo. An excerpt:
While this model is a significant improvement over the telogen conversion assay as a model for human baldness, it suffers from a number of practical disadvantages. The macaques are expensive, relatively rare, labor intensive to maintain, and require long wash out periods between testing. […] Thus, the model relates to a modification of the existing telogen conversion assay. Male C3H/HeN mice approximately 7 weeks old are utilized. These animals are also uniformly in telogen, like their female counterparts. However, once shaven, the androgens inherently present in these male mice inhibit the conversion of the hair follicles to the anagen phase. An anti-androgen will block this androgenic effect and the follicles will convert to anagen, like their female counterparts.
The compounds shown below in Table IV were submitted for further testing utilizing the modified telogen conversion assay, described above. The testing was carried out in the following manner.
Male C3H/HeN mice, 6 to 7 weeks old (Charles River Laboratories, Raleigh, N.C.) were used for the study. Fur was clipped from the dorsal region of the mice prior to initiation of the study. Only mice with pink skin, a visual indication of the telogen phase, were selected for inclusion in the study.
A second group of animals received only the vehicle to serve as a control. Treatments were applied twice daily for 4 weeks.
The hair growth response was quantified by recording, for each animal, the day on which signs of hair growth first appeared over the treated area. The first sign of anagen was the darkening of skin color as melanocytes in the follicles started to synthesize melanin in preparation for the production of pigmented hairs. […] The day on which anagen was initiated in 50% of the test animals for both the treatment group and the vehicle group is reported below in Table IV.

Assay [3] has as its target T1, hAR (human androgen receptor) (Homo sapiens, UniProt P10275).
T1 construct: made in house; host or cells: baculovirus/Sf9 insect cells (crude extract)
T1 sequence (P10275 1-920): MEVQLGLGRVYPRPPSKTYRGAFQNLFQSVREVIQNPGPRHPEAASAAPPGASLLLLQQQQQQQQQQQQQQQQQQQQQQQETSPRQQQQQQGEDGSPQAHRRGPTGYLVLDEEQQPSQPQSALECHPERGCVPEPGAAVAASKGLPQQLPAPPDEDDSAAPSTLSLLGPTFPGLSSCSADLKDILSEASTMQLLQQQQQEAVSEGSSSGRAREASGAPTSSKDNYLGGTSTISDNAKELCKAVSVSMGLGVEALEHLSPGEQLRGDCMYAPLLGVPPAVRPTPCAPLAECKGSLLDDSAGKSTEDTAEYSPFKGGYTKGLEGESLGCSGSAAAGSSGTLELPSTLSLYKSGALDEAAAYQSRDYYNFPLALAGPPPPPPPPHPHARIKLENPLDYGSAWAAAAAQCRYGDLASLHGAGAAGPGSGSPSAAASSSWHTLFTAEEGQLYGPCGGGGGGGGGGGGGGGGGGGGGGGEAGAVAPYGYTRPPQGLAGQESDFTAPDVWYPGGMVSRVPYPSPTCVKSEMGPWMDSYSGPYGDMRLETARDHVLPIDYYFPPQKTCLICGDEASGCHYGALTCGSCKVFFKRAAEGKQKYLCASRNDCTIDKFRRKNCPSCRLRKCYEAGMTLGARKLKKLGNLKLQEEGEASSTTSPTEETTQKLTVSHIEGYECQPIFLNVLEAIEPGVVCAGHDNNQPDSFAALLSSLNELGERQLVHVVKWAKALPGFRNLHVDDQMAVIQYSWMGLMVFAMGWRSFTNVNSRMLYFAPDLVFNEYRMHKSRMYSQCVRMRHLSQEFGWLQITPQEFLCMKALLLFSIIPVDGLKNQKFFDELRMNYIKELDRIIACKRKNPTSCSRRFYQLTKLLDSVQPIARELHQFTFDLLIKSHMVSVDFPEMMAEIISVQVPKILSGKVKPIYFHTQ
The experiment in a line: Competitive hAR binding assay with 3H-DHT tracer. The note with it: baculovirus/Sf9 hAR extract, 1 nM 3H-DHT, one hour at 4° C; mean of multiple tests; read-out: AR Binding IC50.

In assay [4] the target is T2, androgen receptor in MDA-MB453-MMTV clone 54-19 cells (Homo sapiens, UniProt P10275).
T2 sequence (P10275 1-920 Q868H): T1 sequence (P10275 1-920) with Q868H
The experiment in a line: AR antagonist cell assay (MMTV-luciferase reporter). The format is cell-based. The note with it: read-out: AR Cell IC50; MDA-MB453-MMTV clone 54-19, inhibition of DHT induced luciferase, 17 hr; mean of multiple tests. (In general: A reporter such as luciferase makes a cellular process visible.)

In a further assay the test system is spinal BMD. The note with it: after 7 years of treatment; cited from earlier work.

The structures appear in SMILES notation. Changes are numbered by the printed parent chain. Read-outs that look alike come from different tables or passages of the source.

The values below come from US20090105349A1, “ANDROGEN MODULATORS” (WARNER-LAMBERT COMPANY LLC, priority 2004, published 2009).

Regarding `Cc1ccccc1Oc1ccc(C#N)cc1Cl` [Example 4, 3-Chloro-4-o-tolyloxy-benzonitrile], in assay [1], the “% CE Reduction” value is reported as 76%, the “% WE Reduction” value is reported as 90% and the “% WE & CE Reduction” value came out at 166%. In addition, the “Anagen-Trx (day on which anagen was initiated in 50% of the test animals)” value in assay [2] (3 % w/v, Vehicle #2 (polyethylene glycol/ethanol 30/70), topical twice daily for 4 weeks) is greater than 35 days.

For the molecule `Cc1ccccc1Oc1ccc(C#N)c(Cl)c1` [Example 7, 2-Chloro-4-o-tolyloxy-benzonitrile], in assay [1], the “% CE Reduction” value was 71%, the “% WE Reduction” value worked out at 87% and the “% WE & CE Reduction” value stood at 158%. For the same molecule, the “Anagen-Trx (day on which anagen was initiated in 50% of the test animals)” value in assay [2] (1 % w/v, Vehicle #2, topical twice daily for 4 weeks) is greater than 60 days. Besides, in assay [2] (5 % w/v, Vehicle #2, topical twice daily for 4 weeks), the “Anagen-Trx (day on which anagen was initiated in 50% of the test animals)” value turned out to be 35 days.

Consider `COc1cccc(Oc2ccc(C#N)c(C(F)(F)F)c2)c1OC` [Example 91, 4-(2,3-Dimethoxy-phenoxy)-2-trifluoromethyl-benzonitrile], for which the values for the IC50 in assay [3] and in assay [4] were 272 nM and 28 nM, respectively. Also, in assay [2] (mouse, in vivo), the “Anagen-Trx (day on which anagen was initiated in 50% of the test animals)” value is 20 days.

For `NCCCC(O)(P(=O)(O)O)P(=O)(O)O` [alendronate], in the assay with spinal BMD, the “increase in spinal BMD” value is reported as no more than 11%.
